Series [1] has as its system pol κ. To be noted: cited from earlier work.
In series [2] the target is T1, Human pol κ (Homo sapiens, UniProt Q9UBT6).
T1 construct: Human pol κ (residues 19–526) was purified as previously reported; made in house
T1 sequence (Q9UBT6 19-526): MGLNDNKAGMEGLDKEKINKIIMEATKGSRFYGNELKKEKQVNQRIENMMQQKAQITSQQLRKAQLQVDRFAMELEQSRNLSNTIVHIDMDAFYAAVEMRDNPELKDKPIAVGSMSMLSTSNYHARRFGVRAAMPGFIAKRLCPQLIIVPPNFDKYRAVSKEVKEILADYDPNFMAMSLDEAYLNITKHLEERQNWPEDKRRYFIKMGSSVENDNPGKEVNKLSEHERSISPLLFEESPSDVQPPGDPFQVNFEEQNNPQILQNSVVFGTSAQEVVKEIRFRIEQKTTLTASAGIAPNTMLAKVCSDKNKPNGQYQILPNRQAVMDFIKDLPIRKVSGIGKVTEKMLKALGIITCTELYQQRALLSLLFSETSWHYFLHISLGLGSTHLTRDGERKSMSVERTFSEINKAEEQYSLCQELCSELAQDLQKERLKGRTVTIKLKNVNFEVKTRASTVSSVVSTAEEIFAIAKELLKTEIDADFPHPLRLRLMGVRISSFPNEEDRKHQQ
In words: Radioactive gel-based primer extension assay on non-damaged DNA, pol κ. The series is classed as biochemical. The procedure:
(§1) The reactions with pol κ, pol η, and pol ι were carried out in the buffers containing 25 mM Tris-HCl, pH 7.5, 8 mM MgCl2, 10% glycerol, 100 µg/mL bovine serum albumin, and 5 mM DTT. Buffers for pol δ reactions contained 40 mM Hepes-KOH, pH 6.8, 10% glycerol, 200 µg/mL bovine serum albumin, 1 mM DTT, and 8 mM MgCl2. Final concentration of pol κ, pol η, pol ι, or pol δ in the reaction was 0.25 nM, 1 nM, 2.5 nM, or 4 nM, respectively. In this assay, a polymerase was preincubated with the compound for 15 min at room temperature. Primer extensions were then initiated by the addition of DNA substrate at final concentration of 5 nM and carried out for 30 min at room temperature in the presence of 100 µM dCTP and dGTP. The reactions were terminated by the addition of an equal volume of a dye solution containing 95% (v/v) formamide, 10 mM EDTA, 0.03% (w/v) xylene cyanol, and 0.03% (w/v) bromphenol blue. Reaction products were separated through a 15% acrylamide gel containing 8 M urea and visualized with a PhosphorImager screen. The ratio of extended primer to the total amount of primer was measured using ImageQuant 5.2 software to calculate the percentage of primer extended. IC50 values were determined by fitting the data to variable slope four-parameter equations using GraphPad Prism 5.

For series [3], the target named is T1, Human pol κ. In words: Radioactive gel-based primer extension (TLS) past acrolein-derived ring-opened reduced form of γ-HOPdG, pol κ. Type of series: biochemical. The procedure:
as §1
The primary role of pol κ is to bypass DNA lesions. Therefore, it was critical to establish the assays to investigate the capability of these compounds to inhibit lesion bypass activity of pol κ. Radioactive gel-based primer extension reactions were carried out using a DNA substrate containing a site-specific acrolein-derived ring-opened reduced form of γ-HOPdG, a lesion that pol κ can efficiently bypass in vitro [13].

In series [4] the target is T2, Human pol κ (residues 19–526) (Homo sapiens, UniProt Q9UBT6).
T2 construct: Human pol κ (residues 19–526) was purified as previously reported; made in house
T2 sequence (Q9UBT6 19-526): T1 sequence (Q9UBT6 19-526)
Briefly: qHTS fluorescence-based DNA strand displacement assay. The series is classed as biochemical. The procedure:
The substrate used in qHTS was made by the annealing of unlabeled oligodeoxynucleotide primer (5′-TCACCCTCGTACGACTC-3′) and TAMRA-labeled reporter strand (5′-TTTTTTTTTTGC-6-TAMRA-3′) to oligodeoxynucleotide template labeled with BHQ-2 (5′-BHQ-2-[…]-3′) as originally described by Dorjsuren et al.. The annealing mixture of unlabeled primer, TAMRA-labeled reporter, and BHQ-2-labeled template in buffer containing 50 mM Tris-HCl, pH 8.0, 100 mM NaCl, and 5 mM MgCl2 was heated at 95°C for 5 min and allowed to cool gradually to room temperature. The substrate was then stored at −20°C as 50 µM stock.
qHTS was performed in 50 mM Tris-HCI, pH 8.0, 40 mM NaCl, 1 mM MgCl2, 0.01% Tween-20, 2 mM DTT, and 100 µM dTTP. 3 µL of reagents (buffer as negative control and pol κ in the remaining plate at 10 nM final concentration) were dispensed by Flying Reagent Dispenser™ (FRD) (Beckman Coulter, Inc., Fullerton, CA) into a 1,536-well plate. Compounds were delivered as 23 nL in DMSO solution via pintool transfer; vehicle-only control consisted of 23 nL DMSO. The plate was incubated for 15 min at room temperature, and then 1 µL of substrate (50 nM final concentration) was added to initiate the reaction. The plate was immediately transferred into ViewLux reader for kinetic fluorescence data collection.
To lay the foundation for the methodologies to discover and characterize inhibitors of pol κ, we used a fluorescent reporter strand displacement assay (Figure 1 and [27]). The library of bioactive small molecules was tested as seven-point dilution series, with the final concentrations ranging from 2.9 nM to 57 µM.
Background: Quantitative high-throughput screening tests each substance at several concentrations.

The test system of series [5] is XP30RO cells (XP-V). In words: Cell survival assay, crystal violet, with or without UV. To be noted: crystal violet; inhibitor 6 h then UV 1.5, 4.5 or 7.5 J/m^2; candesartan cilexetil 24 µM.
Procedure: Cell survival assays were carried out using crystal violet assays and CellTiter-Glo Luminescent Cell Viability Assays. In crystal violet assays, XP30RO cells were plated into clear 96-well plates at a density of 8000 cells/mL and incubated overnight at 37°C, 5% CO2. The cells were treated with (1) inhibitor alone for 6 h or (2) UV alone or (3) inhibitor alone for 6 h followed by UV irradiation. After 2 days, cells were fixed with 4% paraformaldehyde and stained with 0.5% crystal violet dye. The dye was dissolved in 10% acetic acid and absorbance measurement was taken at OD595 nm with Infinite® M200 plate reader (Tecan, Durham, NC). For the CellTiter-Glo Luminescent Cell Viability Assays, the same procedures as crystal violet assays were used except that white/clear bottom 96-well plates were used and cell viability was measured following manufacturer's recommendations.
XP30RO cells were treated with 24 µM of candesartan cilexetil alone, UV alone at 1.5 J/m^2, 4.5 J/m^2, or 7.5 J/m^2, or in combination. Percent survival was calculated by normalizing the data using the cell survival of untreated cells. The data were obtained from three independent experiments.
In series [6] the test system is mouse pol ι. Set-up: method as in PMID 19223184. The following applies: read-out: IC50 against pol ι; cited from earlier work.
In series [7] the test system is double-stranded DNA ladder. In words: DNA intercalation assay (agarose gel shift of DNA ladder). Type of series: binding. To be noted: 0.75 or 3 nmol compound with 1.5 nmol DNA, 1% agarose gel. The procedure: Candesartan cilexetil or ethidium bromide was incubated with 1.5 nmol of double-stranded DNA ladder for 15 min at room temperature in the buffer containing 50 mM Tris-HCl, pH 8.0, 0.01% Tween-20, 1 mM DTT, and 40 mM NaCl. The reaction mixtures were run on 1% agarose gel and stained with ethidium bromide (0.5 µg/ml) for visualization.
Figure 7 The non-DNA-intercalating property of candesartan cilexetil. Candesartan cilexetil or ethidium bromide was incubated with double-stranded DNA ladder, and the reaction products were run on 1% agarose gel and stained with ethidium bromide. Lane 1: No compound. Lane 2: 0.75 nmol of candesartan cilexetil was incubated with 1.5 nmol DNA. Lane 3: 3 nmol of candesartan cilexetil was incubated with 1.5 nmol DNA. Lane 4: 0.75 nmol of ethidium bromide was incubated with 1.5 nmol DNA. Lane 5: 3 nmol of ethidium bromide was incubated with 1.5 nmol DNA.
Background: Mobility shift assays separate free from complexed probe on a gel.

Series [8] has as its system pol α. More on the design: method as in PMID 20599777. To be noted: cited from earlier work.

Like-named read-outs stand apart in the source and are kept apart here.

As usually defined, the IC50 is the midpoint of a concentration-inhibition curve. Consider `CC1=CC[C@H]2C(C)(C)CCC[C@]2(C)[C@H]1CCCCCCCCCCCCCCCCC(=O)O` (relative stereo) [(1S*,4aS*,8aS*)-17-(1,4,4a,5,6,7,8,8a-octahydro-2,5,5,8a-tetramethylnaphthalen-1-yl)heptadecanoic acid], for which the 50% inhibitory concentration (IC50) in series [1] was 7.2 µM. As for `C/C=C/c1occ(C(=O)c2c(OC)cc(OC)cc2C(=O)OC)c(=O)c1OC` [3-O-methylfunicone], the IC50 in series [1] is 12.5 µM.

As to `CCCCCCCCCCCC(=O)Oc1cccc2c1C(=O)C=CC2=O` [C12:0-Acyl juglone], the IC50 in series [1] was 6.8 µM.

Regarding `CC1(C)[C@@H](O)CC[C@]2(C)[C@H]3C(=O)C=C4[C@@H]5C[C@@](C)(C(=O)O)CC[C@]5(C)CC[C@@]4(C)[C@]3(C)CC[C@@H]12` [Glycyrrhetinic acid], in series [1], the IC50 is 15.8 µM. In the case of `CC(C)c1ccc2c(c1)c(SC(C)(C)C)c(CC(C)(C)C(=O)O)n2Cc1ccc(Cl)cc1` [MK-886], the IC50 in series [2] (primer extension, non-damaged DNA, 0.25 nM pol κ, average ± standard error, three experiments, read-out: gel: non-damaged: IC50) is 13 ± 1.7 µM; in series [3] (primer extension, adducted DNA, 0.25 nM pol κ, average ± standard error, three experiments, read-out: gel: ring-opened reduced form of γ-HOPdG: IC50) it was 14 ± 0.9 µM; in series [4] (fluorescence strand displacement, 10 nM pol κ, 50 nM substrate, 100 µM dTTP, read-out: qHTS: IC50), 30 µM. Moreover, the “Effect on UV-induced cytotoxicity” value in series [5] was “failed to enhance UV toxicity”. For the compound `C/C=C/C(=O)C1=C(OC)OC(C)(/C=C/C=C/C(C)O)C1=O` (stereo not drawn) [Penicilliol A], the IC50 in series [6] is 19.8 µM.

As to `COC1=C(C(=O)CC(C)O)C(=O)C(C)(/C=C/C=C/C(C)O)O1` (stereo not drawn) [Penicilliol B], the IC50 in series [6] is 32.5 µM. For `CC[n+]1c(-c2ccccc2)c2cc(N)ccc2c2ccc(N)cc21` [ethidium bromide], the “DNA migration pattern (intercalation)” value in series [7] was “bands shifted upwards”.

As for `CC1=C(CC/C(C)=C/CCC2=CC[C@H](C3=CC(=O)O[C@H]3O)O[C@H]2O)C(C)(C)CCC1` [manoalide], the IC50 worked out at 3.4 ± 0.9 µM in series [2], 5.6 ± 0.9 µM in series [3] and 9.5 µM in series [4]. The “Effect on UV-induced cytotoxicity” value in series [5] is “failed to enhance UV toxicity”. In the case of `O=C(OC[C@H]1O[C@@H](OC(=O)c2cc(O)c(O)c(O)c2)[C@H](OC(=O)c2cc(O)c(O)c(O)c2)[C@@H](OC(=O)c2cc(O)c(O)c(O)c2)[C@@H]1OC(=O)c1cc(O)c(O)c(O)c1)c1cc(O)c(O)c(O)c1` [penta-1,2,3,4,6-O-galloyl-beta-D-glucose], the IC50 is 0.013 µM in series [8] and 0.03 µM in series [1].

As to C18:1-Acyl juglone, the IC50 in series [1] was 8.1 µM.

(Values after PMC3466269, “A Comprehensive Strategy to Discover Inhibitors of the Translesion Synthesis DNA Polymerase κ” (PLoS ONE, 2012).)
